Results published in US11845726B2.
Values joined by “and” are separate entries in the source; they are usually repeats but may differ in a detail not shown here. Equal entries are not always repeated.

How the values were obtained:
in vitro = in vitro ADME, human
Excerpt: A fundamental evaluation in drug development is the assessment of absorption, distribution, metabolism, excretion, and pharmacokinetics (ADME/PK) (Eddershaw et al., 2000, Drug Discovery Today 5(9): 409-414). […] Drug stability upon exposure to human liver microsomes and liver S9 cellular fractions is a common in vitro assay to approximate in vivo, liver-based drug metabolism (Richardson et al., 2016 Drug Metabolism Letters 10:83-90). First-pass metabolism is also often approximated in vitro using intestinal microsome and cellular S9 fractions (Hatley et al., 2017, Biopharmaceuticals & Drug Disposition, 38(2):155-160). Further, it is well known that human serum, and particularly circulating serum esterases can contribute to systemic drug metabolism (Williams, F M 1987, Pharmacology and Therapeutics, 34:99-109). Many pharmacological agents are classified as prodrugs, as they undergo metabolic transformation in vivo upon administration to release the active drug compound into the systemic compartment (Zawilska J B, et al. 2013, Pharmacological Reports, 65:1-14). Psilocybin, a serotonergic psychedelic agent, is well known prodrug that is metabolized into the psychoactive product, psilocin (Dinis-Oliveira, R J 2017, Drug Metabolism Reviews, 49(1):84-91). To evaluate the capacity of test molecules to similarly serve as prodrugs of psilocin, time-dependent, metabolic stability assays using human AB serum, human intestinal microsomes (HIM), human intestinal S9 fractions (HIS9), human liver microsomes (HLM), human liver S9 fractions (HLS9), human alkaline phosphatase, and porcine esterase were performed. […] Liquid chromatography coupled mass spectrometry (LC-MS) was employed to track the conversion of the test molecules into psilocin. All intestinal and liver fractions and NADPH RapidStart reagent was purchased from Sekisui/XenoTech. Human AB serum was purchased from Sigma. For intestine and liver metabolism assays, 2.5 μM candidate compounds were incubated in 400 μg/ml of each cellular fraction (HLM, HLS9, HIM, or HIS9) in 50 mM potassium phosphate buffer (pH 7.4) containing 3 mM MgCl2 and 1 mM EDTA supplemented with NADPH RapidStart at 37° C. Samples were taken at the start of the assay, and at every 20 minutes for 2 hours. Time-point samples were precipitated with 1:1 volume of acetonitrile to quench the reaction before centrifugation at 4000×g for 20 minutes. Supernatants were analyzed for the presence of candidate prodrugs (parent molecule) and psilocin (the predicted metabolite) using Orbitrap LC-MS (Thermo Scientific) using previously described methods (Menéndez-Perdomo et al., 2021, J. Mass Spectrom., 56: e4683). The serum assays were carried out in 10% human AB serum in 50 mM potassium phosphate buffer (pH 7.4) containing 3 mM MgCl2 and 1 mM EDTA. Bovine alkaline phosphatase assays were carried out using one unit of purified enzyme in 50 mM potassium phosphate buffer (pH 7.4) containing 3 mM MgCl2 and 1 mM EDTA. Porcine esterase assays were carried out using one unit of purified enzyme in 50 mM potassium phosphate buffer (pH 7.4) containing 3 mM MgCl2 and 1 mM EDTA. Assay concentrations (μM) of both parent ‘prodrug’ molecule and psilocin metabolite, as quantified through LC-MS using routine standard curve procedures, were plotted as functions of assay time (minutes). The metabolism rate (T1/2) was determined from the metabolism curve plot using the one phase decay feature of GraphPad PRISM software (Version 9.2.0). The quantity of parent prodrug at time zero was set as 100%.
Positive controls were first tested to ensure that assays were functioning properly.

[1] = In vitro metabolic stability / psilocin release in AB serum; assay type: in vitro ADME, human
Excerpt: A fundamental evaluation in drug development is the assessment of absorption, distribution, metabolism, excretion, and pharmacokinetics (ADME/PK) (Eddershaw et al., 2000, Drug Discovery Today 5(9): 409-414). […] Drug stability upon exposure to human liver microsomes and liver S9 cellular fractions is a common in vitro assay to approximate in vivo, liver-based drug metabolism (Richardson et al., 2016 Drug Metabolism Letters 10:83-90). First-pass metabolism is also often approximated in vitro using intestinal microsome and cellular S9 fractions (Hatley et al., 2017, Biopharmaceuticals & Drug Disposition, 38(2):155-160). Further, it is well known that human serum, and particularly circulating serum esterases can contribute to systemic drug metabolism (Williams, F M 1987, Pharmacology and Therapeutics, 34:99-109). Many pharmacological agents are classified as prodrugs, as they undergo metabolic transformation in vivo upon administration to release the active drug compound into the systemic compartment (Zawilska J B, et al. 2013, Pharmacological Reports, 65:1-14). Psilocybin, a serotonergic psychedelic agent, is well known prodrug that is metabolized into the psychoactive product, psilocin (Dinis-Oliveira, R J 2017, Drug Metabolism Reviews, 49(1):84-91). […] Supernatants were analyzed for the presence of candidate prodrugs (parent molecule) and psilocin (the predicted metabolite) using Orbitrap LC-MS (Thermo Scientific) using previously described methods (Menéndez-Perdomo et al., 2021, J. Mass Spectrom., 56: e4683). […] Assay concentrations (μM) of both parent ‘prodrug’ molecule and psilocin metabolite, as quantified through LC-MS using routine standard curve procedures, were plotted as functions of assay time (minutes). The metabolism rate (T1/2) was determined from the metabolism curve plot using the one phase decay feature of GraphPad PRISM software (Version 9.2.0). The quantity of parent prodrug at time zero was set as 100%. […]

[2] = Stability in enzyme-free control buffer; assay type: in vitro ADME; settings: assay buffer without enzymes
Excerpt: A fundamental evaluation in drug development is the assessment of absorption, distribution, metabolism, excretion, and pharmacokinetics (ADME/PK) (Eddershaw et al., 2000, Drug Discovery Today 5(9): 409-414). […] Drug stability upon exposure to human liver microsomes and liver S9 cellular fractions is a common in vitro assay to approximate in vivo, liver-based drug metabolism (Richardson et al., 2016 Drug Metabolism Letters 10:83-90). First-pass metabolism is also often approximated in vitro using intestinal microsome and cellular S9 fractions (Hatley et al., 2017, Biopharmaceuticals & Drug Disposition, 38(2):155-160). […] Supernatants were analyzed for the presence of candidate prodrugs (parent molecule) and psilocin (the predicted metabolite) using Orbitrap LC-MS (Thermo Scientific) using previously described methods (Menéndez-Perdomo et al., 2021, J. Mass Spectrom., 56: e4683). […] Assay concentrations (μM) of both parent ‘prodrug’ molecule and psilocin metabolite, as quantified through LC-MS using routine standard curve procedures, were plotted as functions of assay time (minutes). The metabolism rate (T1/2) was determined from the metabolism curve plot using the one phase decay feature of GraphPad PRISM software (Version 9.2.0). The quantity of parent prodrug at time zero was set as 100%.

[3] = Mouse pharmacokinetic (PK) evaluation of drug metabolism to psilocin; settings: for Plasma concentration of psilocin: 24 h
5-HT1A receptor = target: T1, 5-HT1A receptor (Homo sapiens, UniProt P08908); test: cAMP-Glo assay of 5-HT1A receptor modulation in +5-HT1A and -5-HT1A CHO-K1 cells; assay type: cell-based; settings: forskolin-stimulated +5-HT1A vs -5-HT1A cells
T1 construct: host or cells: CHO-K1 co-expressing Ga15
T1 sequence (P08908 1-422): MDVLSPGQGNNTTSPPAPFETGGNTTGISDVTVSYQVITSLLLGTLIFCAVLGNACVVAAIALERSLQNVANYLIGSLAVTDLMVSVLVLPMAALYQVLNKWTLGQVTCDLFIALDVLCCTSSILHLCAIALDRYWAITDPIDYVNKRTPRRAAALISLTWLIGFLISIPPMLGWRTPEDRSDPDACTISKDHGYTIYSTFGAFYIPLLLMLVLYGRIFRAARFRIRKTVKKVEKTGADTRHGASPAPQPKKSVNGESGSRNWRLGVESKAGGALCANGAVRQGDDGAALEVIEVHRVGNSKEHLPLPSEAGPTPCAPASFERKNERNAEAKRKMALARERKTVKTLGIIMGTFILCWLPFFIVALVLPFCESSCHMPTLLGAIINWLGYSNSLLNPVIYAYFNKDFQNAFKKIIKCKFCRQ

5-HT2A receptor = 5-HT2A receptor (Homo sapiens, UniProt P28223); test: [3H]ketanserin competition binding assay (SPA); settings: control ligands, [3H]ketanserin competition
5-HT2A receptor, sequence (P28223 whole entry): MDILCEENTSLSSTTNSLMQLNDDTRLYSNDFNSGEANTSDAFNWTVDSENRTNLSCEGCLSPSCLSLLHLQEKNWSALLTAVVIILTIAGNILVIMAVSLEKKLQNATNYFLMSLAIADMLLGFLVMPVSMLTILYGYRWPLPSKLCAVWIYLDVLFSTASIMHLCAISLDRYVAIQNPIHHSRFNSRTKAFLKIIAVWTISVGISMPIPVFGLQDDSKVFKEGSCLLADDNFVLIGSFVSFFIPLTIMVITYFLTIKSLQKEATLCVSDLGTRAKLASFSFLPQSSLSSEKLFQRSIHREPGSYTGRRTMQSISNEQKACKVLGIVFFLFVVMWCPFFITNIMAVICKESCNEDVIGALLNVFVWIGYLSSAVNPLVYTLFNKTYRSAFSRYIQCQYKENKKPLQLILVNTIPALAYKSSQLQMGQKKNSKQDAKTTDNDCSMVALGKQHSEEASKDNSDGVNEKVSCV

## CN(C)CCc1c[nH]c2cccc(OP(=O)(O)O)c12 [psilocybin]
In vitro; HLM
  stability / conversion to psilocin: stable in liver fractions with no conversion to psilocin
In vitro; HLS9
  stability / conversion to psilocin: stable in liver fractions with no conversion to psilocin
[1]
  stability / conversion to psilocin: stable in serum with no conversion to psilocin
[2]
  stability: stability of psilocybin was confirmed in assay buffer
[3]; 1 mg/kg i.v.
  administered compound in plasma after i.v. dosing: only detectable in i.v. administered animals
[3]; 1 mg/kg i.v., 5 min, Mean ± SD
  Plasma concentration of the administered compound itself: 144 ± 167 ng/mL
[3]; 1 mg/kg i.v., 5 min, individual mice
  Plasma concentration of the administered compound itself: 19.7 ng/mL and 76.8 ng/mL and 334 ng/mL
[3]; 1 mg/kg i.v., 0.25 h, Mean ± SD
  Plasma concentration of the administered compound itself: 13.2 ± 12.5 ng/mL
[3]; 1 mg/kg i.v., 0.25 h, individual mice
  Plasma concentration of the administered compound itself: 3.32 ng/mL and 8.95 ng/mL and 27.2 ng/mL
[3]; 1 mg/kg i.v., 0.5 h, Mean ± SD
  Plasma concentration of the administered compound itself: 4.28 (n = 2) ng/mL
[3]; 1 mg/kg i.v., 0.5 h, individual mice
  Plasma concentration of the administered compound itself: No Peak and 2.35 ng/mL and 6.21 ng/mL
[3]; 1 mg/kg i.v., 1 h, Mean ± SD
  Plasma concentration of the administered compound itself: 1.21 (n = 1) ng/mL
[3]; 1 mg/kg i.v., 1 h, individual mice
  Plasma concentration of the administered compound itself: No Peak (2×) and 1.21 ng/mL
[3]; 1 mg/kg i.v., 2 h, individual mice
  Plasma concentration of the administered compound itself: No Peak
[3]; 1 mg/kg i.v., 4 h, individual mice
  Plasma concentration of the administered compound itself: No Peak
[3]; 1 mg/kg i.v., 6 h, individual mice
  Plasma concentration of the administered compound itself: No Peak
[3]; 1 mg/kg i.v., 8 h, individual mice
  Plasma concentration of the administered compound itself: No Peak (2×) and 2.54 ng/mL
[3]; 1.56 mg/kg oral, individual mice
  Plasma concentration of psilocin: BLQ
[3]; 3 mg/kg oral, individual mice
  Plasma concentration of psilocin: BLQ
[3]; oral dosing, any dose
  administered compound in plasma after oral dosing: not detectable in orally administered animals at any dose

## NCCc1c[nH]c2ccc(O)cc12 [serotonin]
5-HT1A receptor
  cAMP levels / 5-HT1A receptor modulation: reduction in cAMP levels

## N[C@@H](Cc1c[nH]c2ccccc12)C(=O)O [tryptophan]
5-HT1A receptor
  cAMP levels / 5-HT1A receptor modulation: no reduction in cellular cAMP levels
5-HT2A receptor
  5-HT2A competition binding: no binding
